Results on one compound are retold here after patent US20140107166A1, “HISTONE DEACETYLASE INHIBITORS AND METHODS OF USE THEREOF” (DANA-FARBER CANCER INSTITUTE, INC., priority 2011, published 2014).

The test relates to HDACs. Kind of test: HDAC deacetylase inhibition assay (trypsin-coupled fluorescent substrate). It is filed as biochemical. On the procedure:
Selected compounds of the invention were tested for activity against a number of HDACs. The assays were performed substantially as described in PCT Patent Application WO/2008/091349. In brief, a target substrate is incubated with an HDAC or other protein with deacetylase activity in the presence of a test compound. In certain embodiments, the target substrate includes an acetylated lysine residue. Deacetylation of the substrate allows trypsin or another protease to cleave the substrate, thereby releasing a fluorescent probe. Fluorescence can be continuously monitored in order to determine the ability of the test compound to inhibit the deacetylation activity. The HDAC or other enzyme may be purified or used crude in the inventive assay. In certain embodiments, the assay is a cell-free assay.

SMILES strings stand for the structures.

`CCCCOc1ccc(CC(=O)NO)cc1` [bufexamac]: the “inhibition of HDAC (result in words)” value is given as “inhibitor of HDAC”.
